# Results published in patent US6127339A, “Peptide for binding thereto a low density lipoprotein” (Asahi Kasei Kogyo Kabushiki Kaisha, priority 1995, dated 2000).
# No end group written: not given here.
# System: LDL
# Assay: Staining of peptide-bonded resin with biotinylated LDL in plasma (ABC method)
# Type: binding
# Parameters: key: the peptide-bonded resins which were stained are indicated with "+ (plus)"; the peptide-bonded resins which were not stained are indicated with "- (minus)"
# Conditions: Table 2, peptide-bonded TG resin, same manner as Example 1
# Protocol: With respect to the adsorbent comprising the water-insoluble carrier having bonded thereto the peptide, as a method for evaluating the binding ability (affinity) of the adsorbent for an LDL, there can be mentioned a method in which, after causing an LDL to be adsorbed on the adsorbent, the adsorbent having the LDL adsorbed thereon is subjected to staining (avidin-biotin complex method, that is, ABC method). Specifically, a biotinylated LDL is added to plasma, and the adsorbent is immersed in the plasma for a predetermined period of time. Then, the adsorbent is taken out of the plasma, and washed. Subsequently, the adsorbent is immersed in a horseradish peroxidase-labeled streptoavidin solution, and a solution of 3,3'-diamino benzidine, which is a substrate for the above-mentioned enzyme (horseradish peroxidase), is added thereto, thereby staining the adsorbent. The binding ability of the adsorbent for LDL is evaluated from the degree of the staining. With respect to methods for evaluating a binding ability for LDL, reference can be made to, for example, the following literature: S. M. Hsu, L. Raine, H. Fanger, J. Histchem. Cytochem., 29, 577 (1981); and H. Towbin, T. Staehelin, J. Gordon, Proc. Natl. Acad. Sci. U.S.A., 76, 4350 (1979).
# The ability of each of the peptides to bind thereto an LDL was evaluated as follows. To a blood sample obtained from a healthy person was added a 3.8% aqueous solution of sodium citrate to thereby obtain a mixture. The obtained mixture was centrifuged to separate the blood sample into a blood cells component and a plasma component.
# On the other hand, each of the above-mentioned polystyrene resins having bonded thereto the above-synthesized peptides was individually taken out from the synthesis reaction system and packed in a column having a filter (manufactured and sold by Bio-Rad laboratories, U.S.A.). Subsequently, the plasma-LDL mixture prepared above was added to the column, and the column was allowed to stand at room temperature for 1 hour. Then, the column was washed with a physiological saline containing 0.1% Tween 20 and sodium phosphate. After the washing, 1 ml of a horseradish peroxidase-labeled streptoavidine (0.2 ug/ml) solution containing 10% Block Ace (manufacturedand sold by Dainippon Pharmaceutical Co., Ltd., Japan) was added to the column, and the column was allowed to stand at room temperature for 30 minutes. Then, 1 ml of a 3,3'-diaminobenzidine tetrahydrochloride ([…]) solution containing 0.005% hydrogen peroxide was added to the column (by the addition of this solution, when a peptide-bonded resin contained in the column has the LDL bonded thereto, the resin is stained to assume brown color).
# Results are shown in Table 1, wherein the peptide-bonded resins which were stained are indicated with "+ (plus)" and the peptide-bonded resins which were not stained are indicated with "- (minus)".
# The ability of each of the peptides to bind thereto an LDL was evaluated in substantially the same manner as in Example 1.
row,Substance,Stain
1,"Example 2 Sample 5: pentapeptide N1-N5 = R Y A F W, bonded to TG polystyrene resin (RYAFW; not fully specified; printed as Arg Tyr Ala Phe Trp)",+
2,"Example 2 Sample 6: pentapeptide N1-N5 = K H I Y W, bonded to TG polystyrene resin (KHIYW; not fully specified; printed as Lys His Ile Tyr Trp)",+
3,"Example 2 Sample 7: pentapeptide N1-N5 = W R Y D R, bonded to TG polystyrene resin (WRYDR; not fully specified; printed as Trp Arg Tyr Asp Arg)",+
4,"Example 2 Sample 8: pentapeptide N1-N5 = L K W F Q, bonded to TG polystyrene resin (LKWFQ; not fully specified; printed as Leu Lys Trp Phe Gln)",+
5,"Example 2 Sample 9: pentapeptide N1-N5 = Y Y R W F, bonded to TG polystyrene resin (YYRWF; not fully specified; printed as Tyr Tyr Arg Trp Phe)",+
6,"Example 2 Sample 10: pentapeptide N1-N5 = L W K S F, bonded to TG polystyrene resin (LWKSF; not fully specified; printed as Leu Trp Lys Ser Phe)",+
7,"Example 2 Sample 11: pentapeptide N1-N5 = F F W R G, bonded to TG polystyrene resin (FFWRG; not fully specified; printed as Phe Phe Trp Arg Gly)",+
8,"Example 2 Sample 12: pentapeptide N1-N5 = L N F R W, bonded to TG polystyrene resin (LNFRW; not fully specified; printed as Leu Asn Phe Arg Trp)",+
9,"Example 2 Sample 13: pentapeptide N1-N5 = F L M R F, bonded to TG polystyrene resin (FLMRF; not fully specified; printed as Phe Leu Met Arg Phe)",+
10,"Example 2 Sample 14: pentapeptide N1-N5 = W L M W R, bonded to TG polystyrene resin (WLMWR; not fully specified; printed as Trp Leu Met Trp Arg)",+

# System: LDL
# Assay: LDL-adsorbing ratio of peptide-bonded resin in LDL solution (decrease of free cholesterol)
# Type: binding
# Conditions: Table 3; peptide-bonded resin 85 mg dry, 1 ml LDL solution 50 μg/ml in PBS
row,Substance,LDL-adsorbing ratio (%)
1,"FFFFFFGGGGG [comparative peptide bonded to TG polystyrene resin, electric charge 0 or less, reference compound]",2.6%
2,LFLMR (not fully specified) [peptide bonded to TG polystyrene resin],39.3%
3,LFLMRGGGGG,36.9%
4,"WAWEEGGGGG (not fully specified) [comparative peptide bonded to TG polystyrene resin, electric charge 0 or less, reference compound]",4.3%
5,WAWRR (not fully specified) [peptide bonded to TG polystyrene resin],62.2%
6,WAWRRGGGGG (not fully specified) [peptide bonded to TG polystyrene resin],49.8%

# Same assay, conditions: Table 4; peptide-bonded resin 85 mg dry, 1 ml LDL solution 50 μg/ml in PBS
row,Substance,LDL-adsorbing ratio (%)
1,WFWK (not fully specified) [peptide bonded to TG polystyrene resin],33.0%
2,WFWKK (not fully specified) [peptide bonded to TG polystyrene resin],43.0%
3,WFWR (not fully specified) [peptide bonded to TG polystyrene resin],35.0%
4,WFWRR (not fully specified) [peptide bonded to TG polystyrene resin],49.0%
5,WWK,25.0%
6,WWR,32.0%

# Same assay, conditions: Table 5; D-form and L-form peptides on resin, same manner as Example 4
row,Substance,LDL-adsorbing ratio (%)
1,WFWRR [WFWRR (D-form)],38.3%
2,WWR [WWR (D-form)],41.6%
3,WWWR [WWWR (D-form)],33.8%
4,WWWR [WWWR (L-form)] (also: L-form) [peptide bonded to TG polystyrene resin],42.2%

# Same assay, conditions: Table 5; D-form and L-form peptides on resin, same manner as Example 4; listed as WFWRR (L-form)
row,Substance,LDL-adsorbing ratio (%)
1,WFWRR (not fully specified) [peptide bonded to TG polystyrene resin],39.1%

# Same assay, conditions: Table 5; D-form and L-form peptides on resin, same manner as Example 4; listed as WWR (L-form)
row,Substance,LDL-adsorbing ratio (%)
1,WWR,33.8%

# Same assay, conditions: Table 6; peptide-bonded resin, same manner as Example 4
row,Substance,LDL-adsorbing ratio (%)
1,WAAAAAR (not fully specified) [peptide bonded to TG polystyrene resin],23.7%
2,WAAAAR (not fully specified) [peptide bonded to TG polystyrene resin],26.3%
3,WAAAR (not fully specified) [peptide bonded to TG polystyrene resin],39.3%
4,WAAR (not fully specified) [peptide bonded to TG polystyrene resin],36.3%
5,WAR,32.3%
